Source: US20030083237A1, “Anti-angiogenic peptides for cancer treatment” (priority 2001, published 2003)
Ends that are not written are not given here. Peptide text beside a SMILES is read from it.

System: BCE cells (Bovine Capillary Endothelial cells)
Format: cell-based
Settings: for inhibiting the growth of BCE cells (in-vitro inhibition studies, FIG. 2): result in words
Method: The inhibition of said peptides on the endothelial cells was performed on BCE cells (Bovine Capillary Endothelial cells) as shown in Example 9. The inhibition of said peptide on the endothelial cells was performed on BCE cells (Folkman et al, Proceedings of the National Academy of Sciences USA. 76: 5217-5221 (1979)). The medium contains 90% DMEM (Dulbecco's Modified Eagle Medium), 10% FBS (fetal bovine serum), and 2 ng/mL of bFGF (basic fibroblast growth factor). A 24-well platelet was used for the growth of the BCE cells. To each well, 8,000-10,000 cells and 0.5 mL of the medium were added. The medium in each of the test wells was replaced by medium containing P1, P2, P3, P4, P5, P6, P7, or AK38 after 12 hours and continue to grow 5-7 days at 37° C. the BCE cells, in comparison to the control samples, to evaluate the inhibition on the growth of endothelial cells. The concentration inhibiting 50% of the cell growth is defined as IC50. […] (FIG. 6)

Row | IC50 [µM] | Compound | inhibiting the growth of BCE cells (in-vitro inhibition studies, FIG. 2)
1 |  | ASSSFD [Peptide P7, protected form of peptide {7} of AK38 kringle] | none of the four peptides (P1, P2, P6, and P7) is significantly effective
2 |  | IVPSLGPPSEQD [Peptide P1, protected form of peptide {1} of AK38 kringle] | none of the four peptides (P1, P2, P6, and P7) is significantly effective
3 | 0.045 | CSCC[C@H](NC(=O)[C@@H](NC(=O)[C@H](Cc1ccc(O)cc1)NC(C)=O)[C@@H](C)O)C(=O)N[C@@H](CC(N)=O)C(=O)N1CCC[C@H]1C(=O)N[C@@H](CCCNC(=N)N)C(=O)N[C@@H](CCCCN)C(=O)N[C@@H](CC(C)C)C(=O)N[C@@H](Cc1ccccc1)C(=O)N[C@@H](CC(=O)O)C(=O)N[C@@H](Cc1ccc(O)cc1)C(N)=O [Peptide P5, Tyr-Thr-Met-Asn-Pro-Arg-Lys-Leu-Phe-Asp-Tyr] (Ac-YTMNPRKLFDY-NH2) | very effective
4 |  | Asp-Ile-Pro-Leu (DIPL; printed: Asp-Ile-Pro-Leu) [Peptide P6, protected form of peptide {6} of AK38 kringle] | none of the four peptides (P1, P2, P6, and P7) is significantly effective
5 |  | MFGNGKGYRGKKATTVTGTP [Peptide P2, protected form of peptide {2} of AK38 kringle] | none of the four peptides (P1, P2, P6, and P7) is significantly effective
6 | 0.1 | CC[C@H](C)[C@H](NC(=O)[C@H](CC(=O)O)NC(=O)CNC(=O)[C@H](CC(=O)O)NC(=O)[C@@H]1CCCN1C(=O)[C@H](CC(N)=O)NC(=O)[C@H](CCCNC(=N)N)NC(C)=O)C(=O)N[C@@H](CC(N)=O)C(=O)NCC(=O)N1CCC[C@H]1C(=O)N[C@@H](Cc1c[nH]c2ccccc12)C(N)=O [Peptide P4, Arg-Asn-Pro-Asp-Gly-Asp-Ile-Asn-Gly-Pro-Trp] (Ac-RNPDGDINGPW-NH2) | very effective
7 |  | QQWAAQEPHRHSTFIPGTNKWAGLEKNY [Peptide P3, protected form of peptide {3} of AK38 kringle] | minor inhibition effect
